Source: patent US4774251A, “Method of inhibiting aromatase” (Eli Lilly and Company, priority 1984, dated 1988)
pEC50: −log10 of the molar value. Where two headings read alike, the source gives them in different places.

How the values were obtained:
aromatase = target: T1, aromatase (Rattus norvegicus, UniProt P22443); experiment: Aromatase inhibition in the rat ovarian microsome assay; assay type: biochemical
T1 construct: ovarian microsomes are obtained from rats treated with pregnant mares serum gonadotropin; from tissue; host or cells: ovarian microsomes from rats treated with pregnant mares serum gonadotropin
T1 sequence (P22443 1-508): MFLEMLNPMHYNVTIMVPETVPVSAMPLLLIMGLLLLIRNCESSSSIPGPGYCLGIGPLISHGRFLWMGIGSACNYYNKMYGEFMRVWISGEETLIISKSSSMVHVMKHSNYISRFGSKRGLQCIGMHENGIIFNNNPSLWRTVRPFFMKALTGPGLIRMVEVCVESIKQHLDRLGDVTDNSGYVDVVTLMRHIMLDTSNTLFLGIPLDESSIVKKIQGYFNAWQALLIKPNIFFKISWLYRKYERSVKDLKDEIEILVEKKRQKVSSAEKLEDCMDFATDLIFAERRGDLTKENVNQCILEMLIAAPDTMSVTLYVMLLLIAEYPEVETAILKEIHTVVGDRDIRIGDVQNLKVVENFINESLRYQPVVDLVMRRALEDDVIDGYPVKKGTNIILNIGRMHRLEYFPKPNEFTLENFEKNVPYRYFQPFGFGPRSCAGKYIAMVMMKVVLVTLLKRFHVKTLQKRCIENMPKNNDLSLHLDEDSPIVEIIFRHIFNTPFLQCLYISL
Description: In this test system, ovarian microsomes are obtained from rats treated with pregnant mares serum gonadotropin. Test compounds are added to reaction vials containing 0.1 μM 4-androstene-3,17-dione, 100,000 dpm 1,2[^3 H]-androstenedione, the microsomes and a NADPH generating system. The concentrations of the inhibitors tested ranged between 0.005 and 10 μM.

[1] = system: uterus (weight stimulated by estrogens produced by aromatization); experiment: Estrogen synthesis inhibition in rats: uterine weight after testosterone propionate; assay type: in vivo, rat (immature female Wistar); details: 7 days, testosterone-treated control: Test I 180.3, Test II 210.4, corn oil control: 66.7, 101.4
Description: Immature female Wistar rats (45-55 grams) were divided into control and test groups of 4-8 animals each. Test compounds were administered for seven days as a component of the diet. Control animals received diet without the test compound. Beginning on the fourth day of the test, all animals treated with the test compound and one half of the control animals were given a subcutaneous injection of 1.0 mg of testosterone propionate in corn oil. The remaining control animals received only an equivalent volume of corn oil. On the seventh day of the test, rats treated with testosterone propionate were injected subcutaneously with 100 μCi of [^3 H]-testosterone in 50 μl of 3:1 (v/v) saline-ethanol.
After two hours, the animals were killed by decapitation. Uteri were isolated, trimmed of extraneous connective tissue, and weighted. […] In the control animals treated with testosterone propionate, estrogens produced by aromatization stimulated the uterus resulting in an increase in weight.

[2] = system: estrogen synthesis (ovarian estradiol, estrone, estriol); experiment: Estrogen synthesis inhibition in rats: ovarian steroid concentrations after [3H]-testosterone; assay type: in vivo, rat (immature female Wistar); details: 7 days, ovary; for Mean Steroid Concentration, estriol: testosterone-treated control: Test I 0.41, Test II 0.17; for Mean Steroid Concentration, estrone: testosterone-treated control: Test I 0.88, Test II 0.41; for Mean Steroid Concentration, estradiol: testosterone-treated control: Test I 2.29, Test II 0.78
Description: The ovarian steroids were extracted with 1.5 ml of 9:1 (v/v) toluene/ethanol to which had been added 25 to 100 mcg each of unlabelled estradiol, estriol, and estrone, and approximately 1000 dpm of [^14 C]-estradiol. The samples were vortexed, centrifuged at 500×g for 10 minutes, and the organic phase was transferred to a conical vial. Two additional extractions were performed on the residue in the same way. The pooled organic extract were evaporated for subsequent thin-layer chromatography.
The organic residue from each above extraction was redissolved in 9:1 (v/v) dichloromethane/methanol. The solution of each sample was applied to separate silica gel thin layer chromatography plates which contained a fluorescent indicator. The plates were developed in the first dimension with 160:38:1.5:0.5 (v/v/v/v) dichloromethane/ethyl acetate/methanol/acetic acid to within 3 cm of the top of the plate. After air-drying, the plate was developed in the second dimension with 180:19:1 (v/v/v) dichloromethane/methanol/ammonium hydroxide.
The spots were scraped from the plate using a glass wool plugged Pasteur pipet attached to a vacuum line. The steroids were eluted directly into scintillation vials by the addition of 0.2 ml of dichloromethane followed by two washes each of 2.0 ml of methanol. The organic solvent was evaporated and 10.0 ml of scintillation fluid (Beckman Ready Solv-NA) was added to the vials. Samples were analyzed by liquid scintillation spectrometry. Corrections were made based on the recoveries of the [^14 C]-steroid. Steroid concentrations are expressed as femtomoles per milligram protein.

[3] = rat ovarian microsomes, substrate 4-androstene-3,17-dione 0.1 μM, [3H]-H2O release
[4] = 30 ppm in feed (approx. 3 mg/kg/day)
[5] = 300 ppm in feed (approx. 30 mg/kg/day)

Structure (SMILES): C=CCN(Cc1cccnc1)c1ccc(Cl)cc1Cl [N--(2,4-dichlorophenyl)-N--(2-propenyl)-3-pyridinemethanamine]
- pEC50 (aromatase; [3]): 6.12

Structure (SMILES): C#CCN(Cc1cccnc1)c1ccc(Cl)cc1Cl [N--(2,4-dichlorophenyl)-N--(2-propynyl)-3-pyridinemethanamine]
- pEC50 (aromatase): 6.78

Structure (SMILES): Clc1ccc(N(Cc2ccccc2)Cc2cccnc2)c(Cl)c1 [N--(2,4-dichlorophenyl)-N--benzyl-3-pyridinemethanamine]
- pEC50 (aromatase; [3]): 6.51

Structure (SMILES): CCCCCCN(Cc1cccnc1)c1ccc(Cl)cc1Cl [N--(2,4-dichlorophenyl)-N--hexyl-3-pyridinemethanamine]
- pEC50 (aromatase): 5.92

Structure (SMILES): Fc1ccc(N(Cc2ccccc2)Cc2cccnc2)c(F)c1 [N--(2,4-difluorophenyl)-N--benzyl-3-pyridinemethanamine]
- pEC50 (aromatase; [3]): > 7.30
- Mean Uterine Weight [1, 4]: 196.3 mg
- Mean Uterine Weight [1, 5]: 171.4 mg
- Mean Steroid Concentration, estriol [2, 4]: 0.44 femtomoles per milligram of protein
- Mean Steroid Concentration, estrone [2, 4]: 0.00 femtomoles per milligram of protein
- Mean Steroid Concentration, estradiol [2, 4]: 0.84 femtomoles per milligram of protein
- Mean Steroid Concentration, estriol [2, 5]: 0.32 femtomoles per milligram of protein
- Mean Steroid Concentration, estrone [2, 5]: 0.00 femtomoles per milligram of protein
- Mean Steroid Concentration, estradiol [2, 5]: 0.44 femtomoles per milligram of protein

Structure (SMILES): CC=CCN(Cc1cccnc1)c1ccc(Cl)cc1Cl [N--(2-butenyl)-N--(2,4-dichlorophenyl)-3-pyridinemethanamine]
- pEC50 (aromatase): 6.44

Structure (SMILES): Fc1ccc(C(Nc2ccccc2Cl)c2cccnc2)cc1 (stereo not drawn) [N--(2-chlorophenyl)-α-(4-fluorophenyl)-3-pyridinemethanamine]
- pEC50 (aromatase; [3]): 7.10
- Mean Uterine Weight [1, 4]: 154.3 mg
- Mean Uterine Weight [1, 5]: 157.4 mg
- Mean Steroid Concentration, estriol [2, 4]: 0.51 femtomoles per milligram of protein
- Mean Steroid Concentration, estrone [2, 4]: 0.47 femtomoles per milligram of protein
- Mean Steroid Concentration, estradiol [2, 4]: 2.67 femtomoles per milligram of protein
- Mean Steroid Concentration, estriol [2, 5]: 0.37 femtomoles per milligram of protein
- Mean Steroid Concentration, estrone [2, 5]: 0.31 femtomoles per milligram of protein
- Mean Steroid Concentration, estradiol [2, 5]: 1.64 femtomoles per milligram of protein

Structure (SMILES): CC(c1cccnc1)N(C)c1ccc(Cl)cc1 (stereo not drawn) [N--(4-chlorophenyl)-N,α-dimethyl-3-pyridinemethanamine]
- pEC50 (aromatase; [3]): 5.70

Structure (SMILES): CN(c1ccc(Cl)cc1)C(c1ccccc1)c1cccnc1 (stereo not drawn) [N--(4-chlorophenyl)-N--methyl-α-phenyl-3-pyridinemethanamine]
- pEC50 (aromatase; [3]): 5.60

Structure (SMILES): CC(c1cccnc1)N(Cc1ccccc1)c1ccc(Cl)cc1 (stereo not drawn) [N--(4-chlorophenyl)-α-methyl-N--benzyl-3-pyridinemethanamine]
- pEC50 (aromatase; [3]): 5.92

Structure (SMILES): CCCCN(Cc1cccnc1)c1ccc(C)cc1C [N--butyl-N--(2,4-dimethylphenyl)-3-pyridinemethanamine]
- pEC50 (aromatase; [3]): 6.20

Structure (SMILES): CCCCN(c1ccc(Cl)cc1)C(c1ccccc1)c1cccnc1 (stereo not drawn) [N--butyl-N--(4-chlorophenyl)-α-phenyl-3-pyridinemethanamine]
- pEC50 (aromatase; [3]): 6.54

Structure (SMILES): CCCCN(c1ccc(F)cc1)C(C)c1cccnc1 (stereo not drawn) [N--butyl-N--(4-fluorophenyl)-α-methyl-3-pyridinemethanamine]
- pEC50 (aromatase; [3]): 6.43

Structure (SMILES): CCCCN(Cc1ccc(Cl)cc1)c1cnccn1 [N--butyl-N--[(4-chlorophenyl)methyl]pyrazinamine]
- pEC50 (aromatase; [3]): 6.13
